{"source": "paper PMC5347771", "about": "(Oncotarget, 2016)", "key": {"[1]": {"target": "T1, TYRO-3 (Homo sapiens, UniProt Q06418)", "T1 construct": "gene TYRO3", "T1 sequence (Q06418 41-890)": "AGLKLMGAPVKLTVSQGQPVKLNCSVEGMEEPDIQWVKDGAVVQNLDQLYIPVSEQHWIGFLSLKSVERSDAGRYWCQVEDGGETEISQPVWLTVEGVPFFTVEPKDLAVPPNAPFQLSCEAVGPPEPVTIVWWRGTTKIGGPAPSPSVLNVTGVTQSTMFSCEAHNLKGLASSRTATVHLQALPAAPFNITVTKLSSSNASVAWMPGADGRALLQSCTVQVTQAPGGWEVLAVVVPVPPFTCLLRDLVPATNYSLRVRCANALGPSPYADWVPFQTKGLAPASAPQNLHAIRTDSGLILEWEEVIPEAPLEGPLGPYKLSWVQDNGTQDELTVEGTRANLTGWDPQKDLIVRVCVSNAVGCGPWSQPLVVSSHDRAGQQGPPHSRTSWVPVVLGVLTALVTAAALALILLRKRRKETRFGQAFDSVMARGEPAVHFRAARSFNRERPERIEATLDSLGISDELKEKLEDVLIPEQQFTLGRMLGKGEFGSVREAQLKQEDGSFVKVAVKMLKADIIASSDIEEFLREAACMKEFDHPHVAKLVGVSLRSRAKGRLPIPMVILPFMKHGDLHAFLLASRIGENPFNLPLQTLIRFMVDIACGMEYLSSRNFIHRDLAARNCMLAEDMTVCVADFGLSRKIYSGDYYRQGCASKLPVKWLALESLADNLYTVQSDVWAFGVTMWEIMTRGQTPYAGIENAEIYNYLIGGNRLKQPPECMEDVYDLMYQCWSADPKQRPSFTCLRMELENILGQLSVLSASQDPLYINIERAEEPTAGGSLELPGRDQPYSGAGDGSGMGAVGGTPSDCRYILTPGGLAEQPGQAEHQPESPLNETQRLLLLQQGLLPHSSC", "assay": "KINOMEscan competition binding (DiscoveRx); enzyme IC50 […] also measured (Reaction Biology)"}, "[2]": {"target": "T2, AXL (Homo sapiens, UniProt P30530)", "T2 sequence (P30530 26-894)": "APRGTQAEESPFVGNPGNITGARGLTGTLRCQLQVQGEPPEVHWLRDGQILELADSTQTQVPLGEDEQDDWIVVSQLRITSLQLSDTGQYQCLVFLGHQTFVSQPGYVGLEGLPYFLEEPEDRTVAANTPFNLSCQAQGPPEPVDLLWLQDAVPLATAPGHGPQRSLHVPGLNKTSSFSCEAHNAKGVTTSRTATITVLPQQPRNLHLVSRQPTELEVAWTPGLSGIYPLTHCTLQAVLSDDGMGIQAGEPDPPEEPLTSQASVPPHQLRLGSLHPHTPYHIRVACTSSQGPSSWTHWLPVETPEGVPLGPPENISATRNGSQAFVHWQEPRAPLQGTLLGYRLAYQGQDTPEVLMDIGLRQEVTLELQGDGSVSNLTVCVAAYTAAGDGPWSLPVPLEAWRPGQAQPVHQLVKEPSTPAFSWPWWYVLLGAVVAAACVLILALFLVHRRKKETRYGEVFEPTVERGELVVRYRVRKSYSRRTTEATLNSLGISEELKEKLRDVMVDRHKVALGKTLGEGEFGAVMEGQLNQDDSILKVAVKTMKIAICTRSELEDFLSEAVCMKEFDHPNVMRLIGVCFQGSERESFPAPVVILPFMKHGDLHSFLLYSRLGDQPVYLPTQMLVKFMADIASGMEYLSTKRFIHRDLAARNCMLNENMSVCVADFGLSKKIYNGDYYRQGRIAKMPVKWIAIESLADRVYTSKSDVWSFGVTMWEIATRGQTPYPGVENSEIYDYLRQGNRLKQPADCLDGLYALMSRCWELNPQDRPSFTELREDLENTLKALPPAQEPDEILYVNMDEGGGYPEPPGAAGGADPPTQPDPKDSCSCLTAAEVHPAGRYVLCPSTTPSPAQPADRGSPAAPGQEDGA", "assay": "KINOMEscan competition binding (DiscoveRx); enzyme IC50 […] also measured (Reaction Biology)"}}, "data": [{"smiles": "NC(=O)Nc1cc(-c2cccc(F)c2)sc1C(=O)N[C@H]1CCCNC1", "note": "[DN10764, (S)-5-(3-fluorophenyl)-N-(piperidin-3-yl)-3-ureidothiophene-2-carboxamide]", "values": [{"measurement": "Kd", "setting": "[1]", "value": 1.05, "unit": "µM"}, {"measurement": "Kd", "setting": "[2]", "value": 0.026, "unit": "µM"}]}]}
